# Assays:
# [1] = target: Carbonic anhydrase 1 (Homo sapiens, UniProt P00915)
# Description: Inhibition of human carbonic anhydrase 1 preincubated for 15 mins by CO2 hydration stopped-flow assay
# [2] = target: Carbonic anhydrase 12 (Homo sapiens, UniProt O43570)
# [3] = target: Carbonic anhydrase 9 (Homo sapiens, UniProt Q16790)
# Description: Inhibition of human carbonic anhydrase 9 preincubated for 15 mins by CO2 hydration stopped-flow assay
# [4] = target: Carbonic anhydrase 7 (Homo sapiens, UniProt P43166); assay: Inhibition of human carbonic anhydrase 7 preincubated for 15 mins by CO2 hydration stopped-flow assay
# [5] = target: Carbonic anhydrase 14 (Homo sapiens, UniProt Q9ULX7)
# Description: Inhibition of human carbonic anhydrase 14 preincubated for 15 mins by CO2 hydration stopped-flow assay
# [6] = target: Carbonic anhydrase 2 (Homo sapiens, UniProt P00918)
# Description: Inhibition of human carbonic anhydrase 2 preincubated for 15 mins by CO2 hydration stopped-flow assay
# Sequence of Carbonic anhydrase 7 (P43166 whole entry): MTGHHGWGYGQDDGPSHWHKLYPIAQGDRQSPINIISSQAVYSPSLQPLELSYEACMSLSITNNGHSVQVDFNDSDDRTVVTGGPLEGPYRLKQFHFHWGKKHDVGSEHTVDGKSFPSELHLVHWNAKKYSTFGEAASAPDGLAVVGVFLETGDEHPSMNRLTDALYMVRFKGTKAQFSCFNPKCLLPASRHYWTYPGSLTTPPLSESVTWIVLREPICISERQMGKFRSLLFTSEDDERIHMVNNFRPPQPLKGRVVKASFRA
# Sequence of Carbonic anhydrase 1 (P00915 whole entry): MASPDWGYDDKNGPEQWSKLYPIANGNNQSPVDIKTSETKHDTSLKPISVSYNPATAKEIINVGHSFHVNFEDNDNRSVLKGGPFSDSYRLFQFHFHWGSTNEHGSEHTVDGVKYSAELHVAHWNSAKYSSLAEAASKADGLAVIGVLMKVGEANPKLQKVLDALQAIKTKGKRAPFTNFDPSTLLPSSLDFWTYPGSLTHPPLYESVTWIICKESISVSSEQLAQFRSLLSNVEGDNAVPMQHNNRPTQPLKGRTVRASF
# Sequence of Carbonic anhydrase 14 (Q9ULX7 whole entry): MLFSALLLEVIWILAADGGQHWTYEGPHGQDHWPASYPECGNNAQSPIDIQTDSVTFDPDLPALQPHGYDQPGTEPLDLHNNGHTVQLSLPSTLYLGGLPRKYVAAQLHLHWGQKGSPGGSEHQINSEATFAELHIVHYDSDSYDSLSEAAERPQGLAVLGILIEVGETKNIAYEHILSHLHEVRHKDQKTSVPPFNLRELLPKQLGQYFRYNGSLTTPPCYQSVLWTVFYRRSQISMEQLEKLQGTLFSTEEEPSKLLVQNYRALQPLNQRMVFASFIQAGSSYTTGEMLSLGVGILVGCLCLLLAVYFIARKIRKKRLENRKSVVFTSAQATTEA
# Sequence of Carbonic anhydrase 12 (O43570 whole entry): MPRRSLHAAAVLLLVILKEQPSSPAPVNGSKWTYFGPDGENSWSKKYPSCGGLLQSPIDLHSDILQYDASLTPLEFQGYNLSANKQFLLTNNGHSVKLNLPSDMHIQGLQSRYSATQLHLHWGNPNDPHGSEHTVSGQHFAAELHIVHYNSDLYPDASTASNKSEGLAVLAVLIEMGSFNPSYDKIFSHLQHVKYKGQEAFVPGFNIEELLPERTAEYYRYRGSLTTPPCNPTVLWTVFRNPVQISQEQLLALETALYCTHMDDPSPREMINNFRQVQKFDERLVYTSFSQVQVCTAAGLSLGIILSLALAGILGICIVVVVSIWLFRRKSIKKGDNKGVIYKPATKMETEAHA
Compound,Ki [1] [nM],Ki [2] [nM],Ki [3] [nM],Ki [4] [nM],Ki [5] [nM],Ki [6] [nM]
Nc1cccc(O)c1 [3-AMINOPHENOL],4900,7700,4900,5900,7200,4700
O=C(O)c1cc(-c2c3ccc(=O)cc-3oc3cc(O)ccc23)ccc1NC(=S)NCCc1ccc(O)c(O)c1,,,6700,,,4400
CC(C)OC(=O)c1c(O)cccc1O,,,790,,,530
"COC(=O)c1cc(O)ccc1O [METHYL 2,5-DIHYDROXYBENZOATE]",,,840,,,770
CC(C)OC(=O)c1ccc(O)cc1O,,,310,,,510
"COC(=O)c1ccc(O)cc1O [METHYL 2,4-DIHYDROXYBENZOATE]",830,950,890,850,860,760
Cc1cc(C)[n+](CCc2ccccc2C)c(C)c1,,,830,,,6800
"COc1ccc(OC)cc1 [1,4-DIMETHOXYBENZENE]",,,,3880,6790,
Cc1cc(C)[n+](-c2cc(O)ccc2Cl)c(C)c1,,,700,,,490
COC(=O)/C=C/c1ccc(O)cc1 [METHYL P-HYDROXYCINNAMATE],780,810,850,820,830,800
O=C(O)c1cc(O)ccc1O [GENTISIC ACID],4200,7300,6600,68000,67000,
"O=C(O)c1ccc(O)cc1O [2,4-DIHYDROXYBENZOIC ACID]",5200,7500,68000,72000,70000,4900
COC(=O)c1ccc(O)c(O)c1 [METHYL PROTOCATECHUATE],,,790,,,580
CCOC(=O)c1ccc(O)c(O)c1,,,780,,,610
CC(C)OC(=O)c1ccc(O)cc1 [ISOPROPYL 4-HYDROXYBENZOATE],,,7400,,,4400
CC(C)OC(=O)c1cc(O)cc(O)c1,,,900,,,700
CCOC(=O)c1ccc(O)cc1O,,,820,,,520
Nc1cc(O)ccc1Cl,,,4700,,,4900

Compound,Ki [1] [nM],Ki [2] [nM],Ki [3] [nM],Ki [4] [nM],Ki [5] [nM],Ki [6] [nM]
COc1ccc(C(=O)O)cc1OC [VERATRIC ACID],,,,7150,740,
CC(C)OC(=O)c1ccc(O)c(O)c1,,,800,,,420
CCOC(=O)/C=C/c1ccc(O)cc1 [ETHYL P-COUMARATE],,,610,,,710
Cc1cc(C)[n+](-c2cccc(O)c2)c(C)c1,,,680,,,320
CCOC(=O)c1cc(O)cc(O)c1,,,910,,,660
Cc1cc(C)[n+](CCc2ccccc2-c2ccccc2)c(C)c1,,,710,,,4700
CCOC(=O)c1cc(O)ccc1O,,,,,,690
O=C(O)c1ccc(O)c(O)c1 [PROTOCATECHUIC ACID],,,,7870,690,
COC(=O)c1ccc(O)cc1 [METHYLPARABEN],2600,820,5500,780,4100,3400
O=C(O)c1c(O)cccc1O,5700,7200,5900,6600,6500,5200
CCOC(=O)c1c(O)cccc1O,,,780,,,560
CCOC(=O)c1ccc(O)cc1 [ETHYLPARABEN],7900,8600,8200,8700,7700,4800
CC(C)OC(=O)/C=C/c1ccc(O)cc1 [ISOPROPYL 3-(4-HYDROXYPHENYL)ACRYLATE],540,760,680,690,730,520
COC(=O)c1c(O)cccc1O,,,810,,,700
"COC(=O)c1cc(O)cc(O)c1 [METHYL 3,5-DIHYDROXYBENZOATE]",,,810,,,690
"O=C(O)c1cc(O)cc(O)c1 [3,5-DIHYDROXYBENZOIC ACID]",,,,7170,650,
CC(C)OC(=O)c1cc(O)ccc1O,,,810,,,580
